Measurements reported in paper PMC8035703, “Effect of Synchronous Versus Sequential Regimens on the Pharmacokinetics and Biodistribution of Regorafenib with Irradiation” (Pharmaceutics, 2021).
Like-named read-outs stand apart in the source and are kept apart here.

Assays:
[1] = test system: CYP3A4; set-up: method as in PMID 21170960; settings: cited from earlier work
[2] = test system: Huh-7 cells; test: Cell viability assay (MTT), Huh-7; format: cell-based, human; settings: for IC50 / viability at 5 µM / viability at 10 µM / viability at 20 µM: Homo sapiens; for IC50: MTT after 24 h, read-out: IC50 (estimated concentration at which 50% of cells were killed); for viability at 5 µM: Huh-7, regorafenib 5 μM; for viability at 10 µM: Huh-7, regorafenib 10 μM; for viability at 20 µM: Huh-7, regorafenib 20 μM
Procedure: (§1) Human hepatoma Huh-7 and Hep G2 cell lines kindly provided by Professor Hu (Taipei Veterans General Hospital, Taiwan) were plated into 96-well plates (1 × 10^3 per well) with serum-containing medium (100 μL) for 1 day. Regorafenib at concentrations of 0, 5, 10 and 20 μmol/L (μM) was added to the plates. Then, the study groups were designed: the concurrent group (1 h after irradiation) or sequential group (24 h after irradiation) with sham RT (RT0 Gy), 2 Gy (RT2 Gy) and 9 Gy (RT9 Gy). Additionally, after 24 h, 20 μL of 5 mg/mL MTT was added to the plates and incubated for 3 h. The supernatant was discarded, the precipitate was dissolved in 200 μL DMSO, and the plates were read with a microplate reader at 570 nm and a reference wavelength of 630 nm.

[3] = test system: Huh-7 cells; test: Cell cycle analysis (propidium iodide, flow cytometry); format: cell-based, human
Procedure: The cells were collected, fixed and stained with propidium iodide. Flow cytometry was performed, using a Beckman Coulter Elite Epics sorter. The sub-G1 phase was used to quantify dead cells in the apoptosis assays. Cells were released into DMSO or regorafenib at 5, 10 and 20 μM in the concurrent or sequential groups with different RT doses. Floating and adherent cells were harvested at various time points, stained with propidium iodide and analyzed by flow cytometry.

[4] = test system: Huh-7 cells; test: Apoptosis assay (Annexin-V FITC / PI); format: cell-based, human
From the text: Annexin-V FITC and propidium iodide (PI) (BD Bioscience Pharmingen (San Diego, CA, USA)) were used to identify apoptotic cells by FACScan. Cells that were positive for Annexin V and negative for PI were defined as early apoptotic cells. Cells that were positive for both Annexin V and PI were defined as late apoptotic cells.

[5] = test system: Hep G2 cells; test: Cell viability assay (MTT), Hep G2; format: cell-based; settings: Homo sapiens; for IC50: MTT after 24 h, read-out: IC50 (estimated concentration at which 50% of cells were killed); for viability at 5 µM: HepG2, regorafenib 5 μM; for viability at 10 µM: HepG2, regorafenib 10 μM; for viability at 20 µM: HepG2, regorafenib 20 μM
Procedure: as §1

[6] = test system: HCC patients; set-up: method as in PMID 29704513; settings: patients treated with sorafenib followed by regorafenib; cited from earlier work

Q: For `CNC(=O)c1cc(Oc2ccc(NC(=O)Nc3ccc(Cl)c(C(F)(F)F)c3)c(F)c2)ccn1` [regorafenib, Regorafenib], which “Metabolic pathway (in words)” value [1] is on record?
A: metabolized via CYP3A4

Q: What about the “Effect on viability of Huh-7 cells (in words)” value ([2]; 0-20 μM) of the same compound?
A: inhibited the viability of Huh-7 cells in a dose-dependent manner

Q: What about the IC50 ([2]; Huh-7, 24 h, Huh-7, RT0 Gy, S (regorafenib added 24 h following RT)) of the same compound?
A: 12.8 µM

Q: And the IC50 ([2]; Huh-7, 24 h, Huh-7, RT2 Gy, S (regorafenib added 24 h following RT))?
A: 12.1 µM

Q: And the IC50 ([2]; Huh-7, 24 h, Huh-7, RT9 Gy, S (regorafenib added 24 h following RT))?
A: 15.2 µM

Q: And the IC50 ([2]; Huh-7, Huh-7, RT0 Gy, C (regorafenib added 1 h following RT))?
A: 6.56 µM

Q: What about the IC50 ([2]; Huh-7, Huh-7, RT2 Gy, C (regorafenib added 1 h following RT)) of the same compound?
A: 6.38 µM

Q: What about the IC50 ([2]; Huh-7, Huh-7, RT9 Gy, C (regorafenib added 1 h following RT)) of the same compound?
A: 6.36 µM

Q: And the viability at 5 µM ([2]; Huh-7, RT0 Gy, C)?
A: 60.9 ± 1.8%

Q: And the viability at 5 µM ([2]; Huh-7, RT0 Gy, S)?
A: 72.6 ± 1%

Q: What about the viability at 5 µM ([2]; Huh-7, RT2 Gy, C) of the same compound?
A: 59.8 ± 5.5%

Q: And the viability at 5 µM ([2]; Huh-7, RT2 Gy, S)?
A: 59.5 ± 2.7%

Q: What about the viability at 5 µM ([2]; Huh-7, RT9 Gy, C) of the same compound?
A: 62.3 ± 14.1%

Q: What about the viability at 5 µM ([2]; Huh-7, RT9 Gy, S) of the same compound?
A: 60.2 ± 5.6%

Q: What about the viability at 10 µM ([2]; Huh-7, RT0 Gy, C) of the same compound?
A: 35.1 ± 1.6%

Q: What about the viability at 10 µM ([2]; Huh-7, RT0 Gy, S) of the same compound?
A: 55.2 ± 1.2%

Q: And the viability at 10 µM ([2]; Huh-7, RT2 Gy, C)?
A: 33.9 ± 2.7%

Q: And the viability at 10 µM ([2]; Huh-7, RT2 Gy, S)?
A: 46 ± 2.9%

Q: What about the viability at 10 µM ([2]; Huh-7, RT9 Gy, C) of the same compound?
A: 34.3 ± 5.3%

Q: And the viability at 10 µM ([2]; Huh-7, RT9 Gy, S)?
A: 47.6 ± 3%

Q: And the viability at 20 µM ([2]; Huh-7, RT0 Gy, C)?
A: 15.4 ± 1%

Q: And the viability at 20 µM ([2]; Huh-7, RT0 Gy, S)?
A: 41.4 ± 0.4%

Q: And the viability at 20 µM ([2]; Huh-7, RT2 Gy, C)?
A: 14.4 ± 0.8%

Q: And the viability at 20 µM ([2]; Huh-7, RT2 Gy, S)?
A: 36.3 ± 1.4%

Q: What about the viability at 20 µM ([2]; Huh-7, RT9 Gy, C) of the same compound?
A: 14.1 ± 0.7%

Q: And the viability at 20 µM ([2]; Huh-7, RT9 Gy, S)?
A: 41.1 ± 1.7%

Q: And the “Viability: concurrent regorafenib with RT2 Gy and RT9 Gy vs regorafenib only (in words)” value ([2]; Huh-7 and Hep G2)?
A: no synergistic effects

Q: What about the “Viability with regorafenib following RT2 Gy and RT9 Gy (in words)” value ([2]; Huh-7 and Hep G2, regorafenib 10 and 20 μM, sequential) of the same compound?
A: higher than the regorafenib-only and concurrent regimen

Q: What about the “Accumulation of sub-G1 Huh-7 cells (in words)” value ([3]; concurrent groups) of the same compound?
A: correlated with the dose of regorafenib but was not correlated with RT or its absence

Q: What about the “Accumulation of sub-G1 Huh-7 cells (in words)” value ([3]; sequential groups) of the same compound?
A: correlated with the doses of regorafenib and RT

Q: And the “Late apoptosis of Huh-7 cells (in words)” value ([4]; RT followed by regorafenib)?
A: enhanced the late apoptosis of Huh-7 cells

Q: What about the “Apoptosis of Huh-7 cells (in words)” value ([4]; regorafenib concurrent with or following RT) of the same compound?
A: caused Huh-7 cell apoptosis in a dose-dependent manner

Q: What about the IC50 ([5]; HepG2, 24 h, Hep G2, RT0 Gy, S (regorafenib added 24 h following RT)) of the same compound?
A: 17.7 µM

Q: And the IC50 ([5]; HepG2, 24 h, Hep G2, RT2 Gy, S (regorafenib added 24 h following RT))?
A: 18.9 µM

Q: What about the IC50 ([5]; HepG2, 24 h, Hep G2, RT9 Gy, S (regorafenib added 24 h following RT)) of the same compound?
A: 16.8 µM

Q: What about the IC50 ([5]; HepG2, Hep G2, RT0 Gy, C (regorafenib added 1 h following RT)) of the same compound?
A: 9.87 µM

Q: What about the IC50 ([5]; HepG2, Hep G2, RT2 Gy, C (regorafenib added 1 h following RT)) of the same compound?
A: 10.5 µM

Q: And the IC50 ([5]; HepG2, Hep G2, RT9 Gy, C (regorafenib added 1 h following RT))?
A: 8.43 µM

Q: And the viability at 5 µM ([5]; Hep G2, RT0 Gy, C)?
A: 74.6 ± 2.4%

Q: What about the viability at 5 µM ([5]; Hep G2, RT0 Gy, S) of the same compound?
A: 82 ± 1.9%

Q: What about the viability at 5 µM ([5]; Hep G2, RT2 Gy, C) of the same compound?
A: 73.1 ± 11.7%

Q: What about the viability at 5 µM ([5]; Hep G2, RT2 Gy, S) of the same compound?
A: 72.1 ± 1.7%

Q: What about the viability at 5 µM ([5]; Hep G2, RT9 Gy, C) of the same compound?
A: 64.7 ± 11.3%

Q: And the viability at 5 µM ([5]; Hep G2, RT9 Gy, S)?
A: 71 ± 5.3%

Q: And the viability at 10 µM ([5]; Hep G2, RT0 Gy, C)?
A: 51.3 ± 3.1%

Q: What about the viability at 10 µM ([5]; Hep G2, RT0 Gy, S) of the same compound?
A: 67 ± 1.3%

Q: And the viability at 10 µM ([5]; Hep G2, RT2 Gy, C)?
A: 50.8 ± 7%

Q: And the viability at 10 µM ([5]; Hep G2, RT2 Gy, S)?
A: 64.1 ± 1.3%

Q: And the viability at 10 µM ([5]; Hep G2, RT9 Gy, C)?
A: 46.7 ± 8.9%

Q: What about the viability at 10 µM ([5]; Hep G2, RT9 Gy, S) of the same compound?
A: 64.2 ± 4.3%

Q: And the viability at 20 µM ([5]; Hep G2, RT0 Gy, C)?
A: 24.7 ± 1.2%

Q: What about the viability at 20 µM ([5]; Hep G2, RT0 Gy, S) of the same compound?
A: 46 ± 3.4%

Q: And the viability at 20 µM ([5]; Hep G2, RT2 Gy, C)?
A: 24.5 ± 2.5%

Q: And the viability at 20 µM ([5]; Hep G2, RT2 Gy, S)?
A: 42.4 ± 0.8%

Q: What about the viability at 20 µM ([5]; Hep G2, RT9 Gy, C) of the same compound?
A: 20.6 ± 1.5%

Q: What about the viability at 20 µM ([5]; Hep G2, RT9 Gy, S) of the same compound?
A: 38.5 ± 1.9%

Q: And the Median overall survival [6]?
A: 26 months
